# Values quoted from earlier work, collected in patent US12258594B2, “Cas proteins with reduced immunogenicity and methods of screening thereof” (THE BROAD INSTITUTE, INC., priority 2018, dated 2025).
# Tested on: Factor VII
# Details: LNP siRNA systems containing the lipid; hepatocytes in vivo
row,Molecule,"gene silencing potencies, series (rank order)"
1,"1,2-dilinoleyloxy-keto-N,N-dimethyl-3-aminopropane [DLinKDMA]",DLinKC2-DMA>DLinKDMA>DLinDMA>>DLinDAP
2,"CCCCC/C=C\C/C=C\CCCCCCCC(=O)OCC(CN(C)C)OC(=O)CCCCCCC/C=C\C/C=C\CCCCC (stereo not shown) [DLinDAP, 1,2-dilineoyl-3-dimethylammonium-propane]",DLinKC2-DMA>DLinKDMA>DLinDMA>>DLinDAP
3,"CCCCC/C=C\C/C=C\CCCCCCCCOCC(CN(C)C)OCCCCCCCC/C=C\C/C=C\CCCCC (stereo not shown) [DLinDMA, 1,2-dilinoleyloxy-3-N,N-dimethylaminopropane]",DLinKC2-DMA>DLinKDMA>DLinDMA>>DLinDAP
4,"CCCCC/C=C\C/C=C\CCCCCCCCC1(CCCCCCCC/C=C\C/C=C\CCCCC)OCC(CCN(C)C)O1 (stereo not shown) [DLinKC2-DMA, 1,2-dilinoleyl-4-(2-dimethylaminoethyl)-[1,3]-dioxolane]",DLinKC2-DMA>DLinKDMA>DLinDMA>>DLinDAP

# Tested on: target sites with PAM
# Details: AsCpf1 and variants
row,Molecule,PAM of target sites that can be cleaved
1,AsCpf1: Acidaminococcus sp. BV3L6 Cpf1,TTTV
2,S542R/K548V/N552R: AsCpf1 variant with the mutations S542R/K548V/N552R,TATV
3,S542R/K607R: AsCpf1 variant with the mutations S542R/K607R,TYCV/CCCC

# Same assay, conditions: in vitro and in human cells
row,Molecule,activities at the altered PAMs
1,S542R/K548V/N552R: AsCpf1 variant with the mutations S542R/K548V/N552R,enhanced activities
2,S542R/K607R: AsCpf1 variant with the mutations S542R/K607R,enhanced activities

# Tested on: target DNA
# Details: AsCpf1 mutants
row,Molecule,DNA cleavage activity
1,51228A: mutant of Ser1228 of AsCpf1,comparable to that of wild-type AsCpf1
2,D908A: D908A mutant of AsCpf1,almost no activity
3,D1235A: D1235A mutant of AsCpf1,reduced activity
4,D1263A: D1263A mutant of AsCpf1,significantly reduced activity
5,E993A: E993A mutant of AsCpf1,almost no activity
6,G783P: G783P mutant of AsCpf1,reduced activities
7,K548A: K548A mutant of AsCpf1,reduced activities
8,K607A: K607A mutant of AsCpf1,almost no activity
9,M604A: M604A mutant of AsCpf1,reduced activities
10,R176A: R176A mutant of AsCpf1,reduced activities
11,R192A: R192A mutant of AsCpf1,reduced activities
12,R951A: R951A mutant of AsCpf1,reduced activities
13,R1226A: R1226A mutant of AsCpf1,almost no activity
14,W382A: W382A mutant of AsCpf1,reduced activity

# Same assay, conditions: AsCpf1 mutants, target and non-target strand
row,Molecule,DNA strand cleaved
1,R1226A: R1226A mutant of AsCpf1,"acts as a nickase that cleaves the non-target DNA strand, but not the target strand"

# Tested on: dystrophin gene exon 51
# Details: across 48 weeks
row,Molecule,average dystrophin positive fibers compared to baseline [%]
1,eteplirsen,47
